# What was measured:
# [1] = Formation of adducts with MDA, kinetic study by HPLC; assay type: physicochemical; conditions: compound 10 mM, MDA 20 mM, 37° C., after 24 h of reaction; no HPLC separation, trend
# Description: The compounds to be tested are incubated at 37° C. in the presence of MGO or of MDA. A kinetic study aiming to report on the formation of adducts with the MGO or MDA is then carried out via HPLC analysis.
# The compounds to be tested (30 μmol) are dissolved in PBS (1.5 mL). An aqueous solution (qsp 1.25 mL) of MGO at 40% in water (250 μmol) is then prepared and in parallel, MDA bis-(diOEt)-acetal (250 μmol) is set to react with a solution of HCl 1N (2 eq) in water (qsp 1.25 mL) for 1 h at room temperature. An aqueous solution of NaOH 0.05N is also required to neutralise the reaction medium (5 mL).
# The solution of the compound to be tested (625 μL—final concentration in the medium=10 mM) is then set to react with the solution of MGO or of MDA prepared extemporaneously (125 μL—final concentration in the medium=20 mM) in the presence of NaOH 0.05 N (0.5 mL). […]
# A sampling of each mixture (100 μL) is taken at regular intervals of time (0.25; 0.5; 1; 5 and 24 h) and stored at −20° C. in order to stop the reaction. […] The proportion of adducts formed with the MGO or MDA (generally, tR=4.1 to 6.8 min) is then measured in relation to the quantity of remaining free scavenger (generally, tR=0.8 to 4.6 min) after measurement of the area under the curve of the corresponding peaks on the UV spectrum (measurements taken for a representative sample).
# [2] = system: human fibroblasts (MRC-5); test: Anti-apoptotic properties after MGO-induced apoptosis (ELISA) on MRC-5; assay type: cell-based; conditions: MRC-5, pretreated 1 h with 10 or 100 μM, then 2 mM MGO, 24 h
# Description: (§1) The apoptosis of cells is evaluated by an ELISA method using two murine monoconal antibodies with one directed against the DNA and the other against the histones ([…] Cell Death Detection kit, Roche, Meylan, France). This technique makes it possible to specifically measure the mono- and oligo-nucleosomes in the cytoplasmic fraction of the cell lysates.
# (§2) Briefly, the cells are inoculated in 96-well or 24-well plates at a rate of 5.10^3 cells/well for the Bend.3 and PC12 and 75.10^3 cells/well for the MRCS in the suitable medium until subconfluence. The cells are then washed with PBS, then treated with various concentrations (10 μM, 100 μM) of the products to be tested in triplicates for 30 min to 1 h (cellules PC12 and Bend.3) or 1 h (cellules MRCS) at 37° C. The solution of MGO (1 mM for the cellules PC12, 2 mM for the cellules Bend.3 and MRCS) is then added for an incubation of 24 h. […] A peroxidase combined with anti-DNA antibodies then reacts in the presence of the substrate thereof, ABTS (diammonium 2,2′-azino-bis(3-ethylbenzothiazoline-6-sulphonate) and H2O2 in order to give a green derivative of which the optical density reflects the level of apoptosis. The measurement of the absorbance is taken at 405 nm using a Perkin Elmer 2103 Envision® microplate reader. A positive control is carried out in the presence of MGO alone. […]
# [3] = system: murine endothelial brain cells (bEnd.3); test: Anti-apoptotic properties after MGO-induced apoptosis (ELISA) on bEnd.3; assay type: cell-based; conditions: bEnd.3, pretreated 30 min with 10 or 100 μM, then 2 mM MGO, 24 h
# Description: as §1, §2
# [4] = system: rat pheochromocytoma cells, treated as neuronal cells (PC12); test: Anti-apoptotic properties after MGO-induced apoptosis (ELISA) on PC12; assay type: cell-based; conditions: 24 h
# Description: as §1
# Briefly, the cells are inoculated in 96-well or 24-well plates at a rate of 5.10^3 cells/well for the Bend.3 and PC12 and 75.10^3 cells/well for the MRCS in the suitable medium until subconfluence. The cells are then washed with PBS, then treated with various concentrations (10 μM, 100 μM) of the products to be tested in triplicates for 30 min to 1 h (cellules PC12 and Bend.3) or 1 h (cellules MRCS) at 37° C. The solution of MGO (1 mM for the cellules PC12, 2 mM for the cellules Bend.3 and MRCS) is then added for an incubation of 24 h. The concentrations of MGO for each cell type were chosen according to literature and a cytotoxicity test (CCK8) that we conducted. The solution of lyse is then added to each well for 30 min at room temperature. The cell lysates are then centrifuged at 200 g for 10 min. Twenty microliters of this cell lysate is then used for the ELISA according to the procedure described by the supplier. The cell lysates are as such applied to a plate covered with anti-Histones antibodies making it possible to view the fragmentation of the DNA. A peroxidase combined with anti-DNA antibodies then reacts in the presence of the substrate thereof, ABTS (diammonium 2,2′-azino-bis(3-ethylbenzothiazoline-6-sulphonate) and H2O2 in order to give a green derivative of which the optical density reflects the level of apoptosis. The measurement of the absorbance is taken at 405 nm using a Perkin Elmer 2103 Envision® microplate reader. A positive control is carried out in the presence of MGO alone.
# The apoptosis of the cells is expressed by the mean±standard deviation of triplicates forming a representative experiment or of three independent experiments conducted in triplicate.
# [5] = PC12, pretreated 30 min with 10 or 100 μM, then 1 mM MGO
Compound,adducts with the MDA with regards to the free scavenger [1],anti-apoptotic properties [2],anti-apoptotic properties [3],"anti-apoptotic properties [4, 5]","anti-apoptotic properties ([4]; PC12, pretreated 1 h, 100 μM, 1 mM MGO, three independent experiments in triplicate)"
"COc1cc(/C=C/C(=O)N2CCN(C(=O)CCC(N)CN)CC2)ccc1O (centres unmarked) [Compound 29a, (E)-4,5-diamino-1-(4-(3-(4-hydroxy-3-methoxyphenyl)acryloyl)piperazin-1-yl)pentan-1-one]",majority presence of AdD,,,,
"NCC(N)CCCCNC(=O)CCn1cccc(O)c1=O (centres unmarked) [Compound 37b, N-(5,6-diaminohexyl)-3-(3-hydroxy-2-oxopyridin-1(2H)-yl)propanamide]",,promising anti-apoptotic properties at 100 μM,,,
"NCC(N)CCC(=O)NCCCn1cccc(O)c1=O (centres unmarked) [Compound 37c, 4,5-diamino-N-(3-(3-hydroxy-2-oxopyridin-1(2H)-yl)propyl)pentanamide]",,promising anti-apoptotic properties at 100 μM,very interesting anti-apoptotic properties starting at 10 μM,very interesting anti-apoptotic properties starting at 10 μM,confirmed
"NCC(N)CCCCNC(=O)c1cc(O)c(O)c(O)c1 (centres unmarked) [Compound 30b, N-(5,6-diaminohexyl)-3,4,5-trihydroxybenzamide]",,,very interesting anti-apoptotic properties starting at 10 μM,this trend is confirmed at 100 μM,
